# Assay results reported in patent US20230330059A1, “3-PHENYL-2H-CHROMENE DERIVATIVE AND PHARMACEUTICAL COMPOSITION FOR PREVENTING OR TREATING ALZHEIMER'S, CONTAINING SAME” (NEUROBIONET, INC., priority 2020, published 2023).
# How the values were obtained:
# 5xFAD mice [1] = assay: Passive avoidance test; type: in vivo, mouse; conditions: 10 mg/kg orally once a day for 1 month, FIG. 22
# Method: (§1) The experiment was conducted with 5X-FAD transgenic mice having Alzheimer’s disease introduced therein. The 5X FAD mouse is an animal model of Alzheimer’s disease with all the human AD-linked mutations: Swedish (K670N/ […]), Florida (1716V) and London (V7171) in APP (695) and M146L in Presenilin 1
# (§2) 5xFAD mice were purchased from Jackson Lab and bred in and in through mating with C57B16/SJL F1 females, based on the information provided by the supplier. Through genotyping, the mice were divided into groups of 7-9 members, including normal groups (WT) and genetically modified groups (5xFAD): 4.5-month-old 5xFAD mice (Tg) and age-matched controls (WT). To the WT or Tg groups, a vehicle or SPA1413 was orally administered at a dose of 10 mg/kg once a day for 1 month. To test whether SPA1413 has a therapeutic effect on Alzheimer’s disease, the mice in 5 groups (WT-vehicle; WT-SPA1413 5xFAD-vehicle; 5xFAD-SPA1413; and 5xFAD-donepezil) were evaluated for cognitive ability.
# Passive avoidance test: Memory impairment was evaluated using the passive avoidance test. […] After being trained to learn that an unpleasant stimulus was given thereto in the dark room, the mice were evaluated for memory for the corresponding content as step-through latency.
# 5xFAD mice [2] = assay: Novel object recognition test; type: in vivo, mouse; conditions: 10 mg/kg orally once a day for 1 month, between groups, FIG. 20
# Method: as §1, §2
# For a novel object recognition test, the Ethovision XT 9 system was used to examine whether an animal was interested in a new object. […] An object newly recognizable to the animals was put into the box, and the time and frequency of staying near the object were measured to determine how interested the animals were in it. […]
# [3] = test system: MHC II-positive microglia in cortex and hippocampus of 5xFAD mice; assay: MHC II-positive activated microglia in brain tissue; type: in vivo, mouse; conditions: 10 mg/kg, FIGS. 26 and 27
# [4] = test system: HEK293 cells overexpressing the dementia gene PSEN1; assay: MTT cytotoxicity in HEK293 cells overexpressing PSEN1; type: cell-based; conditions: PSEN1 gene-overexpressing HEK293 cell line, 1, 5 and 10 µM, 24 hours, compared to the normal cells; FIG. 16
# Method: HEK293 cells and the HEK293 cells overexpressing the dementia gene PSEN1 were seeded at a density of 2x10^5 cells/well into 96-well plates containing a DMEM medium and stabilized overnight, following by treating the cells with various concentrations (1, 5, and 10 µM) of the sample (SPA1413) for 24 hours. After removal of the culture medium, a 0.5 mg/ml MTT solution was added in an amount of 100 µl to each well and incubated at 37° C. for at least one hour in an incubator. The MTT was removed and 200 µl of DMSO was added to each well to dissolve the formazan. Absorbance was read at 540 nm on an ELISA reader to determine whether or the sample was toxic to the cells.
structure (smiles),measurement,setting,value
"Oc1ccc(C2=Cc3ccc(O)cc3OC2)cc1 [SPA1413, 3-(4-Hydroxyphenyl)-2H-chromen-7-ol]",step-through latency,5xFAD mice [1],significantly recovered
same,total distance,5xFAD mice [2],no significant difference
same,velocity,5xFAD mice [2],no significant difference
same,number of activated microglia showing a positive MHC II reaction,[3],significantly decrease
same,cell viability (MTT),[4],increase in cell viability
